Structures can show the parent of a compound that is named as a salt. Where two headings read alike, the source gives them in different places.
What was measured:
EDG-1 = EDG-1 (Homo sapiens, UniProt P21453); experiment: 35S-GTPγS binding assay, EDG1 (S1P1); format: biochemical; parameters: expressed in transfected cells; conditions: read-out: EDG1 EC50
Method: a) 35S-GTPγS Binding Assay GTP-γ-^35S binding was performed using […]15 μg protein of cell membranes suspended in 50 mM tris-HCl pH 7.5 containing 10 mM MgCl2, 100 mM NaCl and 10 μM GDP. The radioligand was 0.025 nM [^35S] GTP-γ-S and non specific binding determined in the presence of 10 μM non-radioactive GTP-γ-S. […] The maximal stimulation elicited by S1P was taken as a reference to define full or partial agonism and calculate the intrinsic activity (i.a.) of compounds.

circulating lymphocytes = experiment: Assessment of lymphopenia in rats; format: in vivo; conditions: 1 mpk p.o.
Method: b) Assessment of Lymphopenia
Lymphopenia was assessed in vivo. Experiments were done in non-fasted/fasted Swiss mice and/or: Sprague Dawley rats, Wistar rats, Beagle dogs, Cynomolgus monkeys. Compounds were administered orally in suspension in carboxymethyl-cellulose 0.5-1% in water (W/V). Blood was taken on anesthetized/non anaesthetized animal (4% isoflurane) and samples collected in EDTA-containing vacuum tubes from 1 h 30 to 72 hours post administration for lymphopenia measurement.
After 10 minutes stirring, cells were counted using ABC Vet haemocytometer (Scil vet animal Care) for rodent and dog or ADVIA 120 hematology analyzer for monkeys. Pharmacodynamic effect was measured by the decrease in circulating lymphocytes by test item treatment in comparison with haematological parameters of control animals or versus predosing in the same animals.

Sequence of EDG-1 (P21453 whole entry): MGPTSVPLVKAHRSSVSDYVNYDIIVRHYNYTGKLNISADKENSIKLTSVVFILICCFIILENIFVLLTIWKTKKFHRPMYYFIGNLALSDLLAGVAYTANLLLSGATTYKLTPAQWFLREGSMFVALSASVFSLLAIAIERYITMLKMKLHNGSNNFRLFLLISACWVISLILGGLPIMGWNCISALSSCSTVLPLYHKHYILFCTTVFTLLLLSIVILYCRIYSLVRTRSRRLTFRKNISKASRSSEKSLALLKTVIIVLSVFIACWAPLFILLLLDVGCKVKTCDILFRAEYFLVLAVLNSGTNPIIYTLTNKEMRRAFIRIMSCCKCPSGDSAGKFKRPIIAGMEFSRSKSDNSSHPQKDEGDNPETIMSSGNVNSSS

SMILES | EC50 (EDG-1; Table 1b) | also measured
CC(C)Oc1ccc(-c2nc(-c3ccc(CN4CCC(C)(C(=O)O)CC4)cc3)no2)cc1Cl [Example 44, 1-{4-[5-(3-Chloro-4-isopropoxy-phenyl)-[1,2,4]-oxadiazol-3-yl]-benzyl}-4-methyl-piperidine-4-carboxylic acid tert-butyl amine salt] | < 10 nM | 
CC1(C(=O)O)CCN(Cc2ccc(-c3noc(-c4ccc(C(C)(C)C)c(Cl)c4)n3)cc2)CC1 [Example 45, 1-{4-[5-(4-tert-Butyl-3-chloro-phenyl)-[1,2,4]-oxadiazol-3-yl]-benzyl}-4-methyl-piperidine-4-carboxylic acid tert-butyl amine salt] | < 10 nM | 
CCCc1ccc(-c2nc(-c3ccc(CN4CCC(C)(C(=O)O)CC4)cc3)no2)cc1Cl [Example 46, 1-{4-[5-(3-Chloro-4-propyl-phenyl)-[1,2,4]-oxadiazol-3-yl]-benzyl}-4-methyl-piperidine-4-carboxylic acid tert-butyl amine salt] | < 1 nM | 
COCCOCC1(C(=O)O)CCN(Cc2ccc(-c3noc(-c4ccc(OC(C)C)c(Cl)c4)n3)cc2)CC1 [Example 47, 1-{4-[5-(3-Chloro-4-isopropoxy-phenyl)-[1,2,4]-oxadiazol-3-yl]-benzyl}-4-(2-methoxy-ethoxymethyl)-piperidine-4-carboxylic acid tert-butyl amine salt] | < 1 nM | 
CCC1(C(=O)O)CCN(Cc2ccc(-c3noc(-c4ccc(OC(C)C)c(Cl)c4)n3)cc2)CC1 [Example 48, 1-{4-[5-(3-Chloro-4-isopropoxy-phenyl)-[1,2,4]-oxadiazol-3-yl]-benzyl}-4-ethyl-piperidine-4-carboxylic acid tert-butyl amine salt] | < 10 nM | 
C=CCC1(C(=O)O)CCN(Cc2ccc(-c3noc(-c4ccc(OC(C)C)c(Cl)c4)n3)cc2)CC1 [Example 49, 4-Allyl-1-{4-[5-(3-chloro-4-isopropoxy-phenyl)-[1,2,4]-oxadiazol-3-yl]-benzyl}-piperidine-4-carboxylic acid tert-butyl amine salt] | < 1 nM | 
O=C(O)C1(Cc2ccccn2)CCN(Cc2ccc(-c3noc(-c4ccc(-c5ccccc5)c(Cl)c4)n3)cc2)CC1 [Example 50, 1-{4-[5-(2-Chloro-biphenyl-4-yl)-[1,2,4]-oxadiazol-3-yl]-benzyl}-4-pyridin-2-ylmethyl-piperidine-4-carboxylic acid tert-butyl amine salt] | < 1 nM | 
COc1ccc(CC2(C(=O)O)CCN(Cc3ccc(-c4noc(-c5ccc(-c6ccccc6)c(Cl)c5)n4)cc3)CC2)cc1 [Example 51, 1-{4-[5-(2-Chloro-biphenyl-4-yl)-[1,2,4]-oxadiazol-3-yl]-benzyl}-4-(4-methoxy-benzyl)-piperidine-4-carboxylic acid tert-butyl amine salt] | < 1 nM | 
O=C(O)C1(Cc2ccc(F)cc2)CCN(Cc2ccc(-c3noc(-c4ccc(-c5ccccc5)c(Cl)c4)n3)cc2)CC1 [Example 52, 1-{4-[5-(2-Chloro-biphenyl-4-yl)-[1,2,4]-oxadiazol-3-yl]-benzyl}-4-(4-fluoro-benzyl)-piperidine-4-carboxylic acid tert-butyl amine salt] | < 1 nM | 
COc1ccc(CC2(C(=O)O)CCN(Cc3ccc(-c4noc(-c5ccc(C6CCCCC6)c(Cl)c5)n4)cc3)CC2)cc1 [Example 53, 1-{4-[5-(3-Chloro-4-cyclohexylphenyl)-[1,2,4]-oxadiazol-3-yl]-benzyl}-4-(4-methoxy-benzyl)-piperidine-4-carboxylic acid tert-butyl amine salt] | < 1 nM | 
CCC1(C(=O)O)CCN(Cc2ccc(-c3noc(-c4ccc(C5CCCCC5)c(Cl)c4)n3)cc2)CC1 [Example 54, 1-{4-[5-(3-Chloro-4-cyclohexylphenyl)-[1,2,4]-oxadiazol-3-yl]-benzyl}-4-ethyl-piperidine-4-carboxylic acid tert-butyl amine salt] | < 1 nM | 
O=C(O)C1(Cc2ccccc2)CCN(Cc2ccc(-c3noc(-c4ccc(-c5ccccc5)c(Cl)c4)n3)cc2)CC1 [Example 55, 4-Benzyl-1-{4-[5-(2-chloro-biphenyl-4-yl)-[1,2,4]-oxadiazol-3-yl]-benzyl}-piperidine-4-carboxylic acid tert-butyl amine salt] | < 1 nM | 
O=C(O)C1(Cc2ccccn2)CCN(Cc2ccc(-c3noc(-c4ccc(C5CCCCC5)c(Cl)c4)n3)cc2)CC1 [Example 56, 1-{4-[5-(3-Chloro-4-cyclohexyl-phenyl)-[1,2,4]-oxadiazol-3-yl]-benzyl}-4-pyridin-2-ylmethyl-piperidine-4-carboxylic acid tert-butyl amine salt] | < 1 nM | 
COCC1(C(=O)O)CCN(Cc2ccc(-c3noc(-c4ccc(OC(C)C)c(Cl)c4)n3)cc2)CC1 [Example 57, 1-{4-[5-(3-Chloro-4-isopropoxy-phenyl)-[1,2,4]-oxadiazol-3-yl]-benzyl}-4-methoxymethyl-piperidine-4-carboxylic acid tert-butyl amine salt] | < 10 nM | 
O=C(O)C1(Cc2cccnc2)CCN(Cc2ccc(-c3noc(-c4ccc(-c5ccccc5)c(Cl)c4)n3)cc2)CC1 [Example 58, 1-{4-[5-(2-Chloro-biphenyl-4-yl)-[1,2,4]-oxadiazol-3-yl]-benzyl}-4-pyridin-3-ylmethyl-piperidine-4-carboxylic acid tert-butyl amine salt] | < 1 nM | 
CCOCCOCC1(C(=O)O)CCN(Cc2ccc(-c3noc(-c4ccc(CC(C)C)c(Cl)c4)n3)cc2)CC1 [Example 59, 1-{4-[5-(3-Chloro-4-isobutyl-phenyl)-[1,2,4]-oxadiazol-3-yl]-benzyl}-4-(2-ethoxy-ethoxymethyl)-piperidine-4-carboxylic acid tert-butyl amine salt] | < 1 nM | 
CC(C)Cc1ccc(-c2nc(-c3ccc(CN4CCC(COC(C)C)(C(=O)O)CC4)cc3)no2)cc1Cl [Example 60, 1-{4-[5-(3-Chloro-4-isobutyl-phenyl)-[1,2,4]-oxadiazol-3-yl]-benzyl}-4-isopropoxy methyl-piperidine-4-carboxylic acid tert-butyl amine salt] | < 1 nM | 
CC(C)Cc1ccc(-c2nc(-c3ccc(CN4CCC(COC5CCCC5)(C(=O)O)CC4)cc3)no2)cc1Cl [Example 61, 1-{4-[5-(3-Chloro-4-isobutyl-phenyl)-[1,2,4]-oxadiazol-3-yl]-benzyl}-4-cyclopentyloxymethyl-piperidine-4-carboxylic acid tert-butyl amine salt] | < 1 nM | 
CC(C)Cc1ccc(-c2nc(-c3ccc(CN4CCC(Cc5cccs5)(C(=O)O)CC4)cc3)no2)cc1Cl [Example 62, 1-{4-[5-(3-Chloro-4-isobutyl-phenyl)-[1,2,4]-oxadiazol-3-yl]-benzyl}-4-thiophen-2-ylmethyl-piperidine-4-carboxylic acid tert-butyl amine salt] | < 1 nM | 
CC(C)Cc1ccc(-c2nc(-c3ccc(CN4CCC(CC5CC5)(C(=O)O)CC4)cc3)no2)cc1Cl [Example 63, 1-{4-[5-(3-Chloro-4-isobutyl-phenyl)-[1,2,4]-oxadiazol-3-yl]-benzyl}-4-cyclopropylmethyl-piperidine-4-carboxylic acid tert-butyl amine salt] | < 1 nM | 
CC(C)Cc1ccc(-c2nc(-c3ccc(CN4CCC(CCN5CCOCC5)(C(=O)O)CC4)cc3)no2)cc1Cl [Example 64, 1-{4-[5-(3-Chloro-4-isobutyl-phenyl)-[1,2,4]-oxadiazol-3-yl]-benzyl}-4-(2-morpholin-4-yl-ethyl)-piperidine-4-carboxylic acid] | < 10 nM | 
CC(C)Cc1ccc(-c2nc(-c3ccc(CN4CCC(CCCN5CCCCC5)(C(=O)O)CC4)cc3)no2)cc1Cl [Example 65, 1-{4-[5-(3-Chloro-4-isobutyl-phenyl)-[1,2,4]-oxadiazol-3-yl]-benzyl}-4-(3-piperidin-1-yl-propyl)-piperidine-4-carboxylic acid tert-butyl amine salt] | < 10 nM | 
CC(C)Cc1ccc(-c2nc(-c3ccc(CN4CCC(CCCN5CCCC5)(C(=O)O)CC4)cc3)no2)cc1Cl [Example 66, 1-{4-[5-(3-Chloro-4-isobutyl-phenyl)-[1,2,4]-oxadiazol-3-yl]-benzyl}-4-(3-pyrrolidin-1-yl-propyl)-piperidine-4-carboxylic acid tert-butyl amine salt] | < 10 nM | 
O=C(O)C1CCN(Cc2ccc(-c3noc(-c4ccc(-c5ccccc5)c(F)c4)n3)cc2)CC1 [compound 1] |  | Lymphopenia in rats % lymphopenia at 1 mpk/p.o dose 8 Hrs (circulating lymphocytes): 18%; Lymphopenia in rats % lymphopenia at 1 mpk/p.o dose 24 Hrs (circulating lymphocytes): −54%; EC50 (EDG-1; comparative examples table): 11.7 to 19.8 nM
CC(C)Cc1ccc(-c2nc(-c3ccc(CN4CCC(C(=O)O)CC4)cc3)no2)cc1.Cl [compound 2] |  | Lymphopenia in rats % lymphopenia at 1 mpk/p.o dose 8 Hrs (circulating lymphocytes): −25%; Lymphopenia in rats % lymphopenia at 1 mpk/p.o dose 24 Hrs (circulating lymphocytes): −101%; EC50 (EDG-1; comparative examples table): 57.2 nM
CC(C)Cc1ccc(-c2nc(-c3ccc(CN4CCC[C@@H](C(=O)O)C4)cc3)no2)cc1 [compound 3] |  | Lymphopenia in rats % lymphopenia at 1 mpk/p.o dose 8 Hrs (circulating lymphocytes): −24%; Lymphopenia in rats % lymphopenia at 1 mpk/p.o dose 24 Hrs (circulating lymphocytes): −58%; EC50 (EDG-1; comparative examples table): 56.6 nM
Cl.O=C(O)C1CCN(Cc2ccc(-c3noc(-c4ccc(C5CCCCC5)cc4)n3)cc2)CC1 [compound 4] |  | Lymphopenia in rats % lymphopenia at 1 mpk/p.o dose 8 Hrs (circulating lymphocytes): 2%; Lymphopenia in rats % lymphopenia at 1 mpk/p.o dose 24 Hrs (circulating lymphocytes): −57%; EC50 (EDG-1; comparative examples table): 13.9 nM

Reference: US9266867B2, “Piperidinyl monocarboxylic acids as S1P1 receptor agonists” (BIOPROJET, priority 2011, dated 2016)
